Like-named read-outs stand apart in the source and are kept apart here.
Experiments:
[1] = target: T1, human CB2R (Homo sapiens, UniProt P34972); assay: CB2 cAMP (Assay 1): In vitro testing of CB2 potency; type: cell-based
T1 construct: host or cells: CHO cells

[2] = target: T2, human CB1R (Homo sapiens, UniProt P21554); assay: CB1 cAMP (Assay 2): In vitro testing of CB1 potency; type: cell-based
T2 construct: host or cells: CHO cells
T2 sequence (P21554 whole entry): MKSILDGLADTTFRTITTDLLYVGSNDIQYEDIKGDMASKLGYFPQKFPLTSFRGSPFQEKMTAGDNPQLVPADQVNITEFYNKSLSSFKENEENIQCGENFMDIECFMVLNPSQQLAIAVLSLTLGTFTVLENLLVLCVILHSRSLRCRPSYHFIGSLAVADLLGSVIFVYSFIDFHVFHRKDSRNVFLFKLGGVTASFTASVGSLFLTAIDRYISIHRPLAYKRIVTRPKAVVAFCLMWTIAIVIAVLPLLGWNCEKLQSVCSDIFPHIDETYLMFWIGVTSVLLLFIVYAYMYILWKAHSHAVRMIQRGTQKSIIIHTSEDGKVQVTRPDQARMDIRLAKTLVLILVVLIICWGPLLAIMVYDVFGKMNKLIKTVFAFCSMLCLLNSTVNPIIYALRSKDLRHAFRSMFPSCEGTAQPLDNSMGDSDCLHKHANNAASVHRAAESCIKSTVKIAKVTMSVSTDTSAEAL

T1 sequence (P34972 whole entry): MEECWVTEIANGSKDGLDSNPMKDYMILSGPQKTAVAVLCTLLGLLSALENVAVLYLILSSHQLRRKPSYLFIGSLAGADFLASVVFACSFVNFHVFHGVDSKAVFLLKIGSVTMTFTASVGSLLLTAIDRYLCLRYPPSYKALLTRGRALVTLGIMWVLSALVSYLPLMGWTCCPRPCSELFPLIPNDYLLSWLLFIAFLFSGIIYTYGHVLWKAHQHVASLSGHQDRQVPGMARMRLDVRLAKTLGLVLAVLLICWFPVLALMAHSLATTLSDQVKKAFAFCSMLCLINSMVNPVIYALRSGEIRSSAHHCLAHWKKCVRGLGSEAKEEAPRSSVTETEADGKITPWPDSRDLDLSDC

EC50 ([1]; read-out: CB2 EC50)	EC50 ([2]; read-out: CB1 EC50)	SMILES	EC50 [1]	EC50 [2]
–	–	CC(C)(C#N)c1cc(NC(=O)C(C)(C)S(=O)(=O)CCCC(F)(F)F)on1 [Example 1, N-[3-(Cyano-dimethyl-methyl)-isoxazol-5-yl]-2-methyl-2-(4,4,4-trifluoro-butane-1-sulfonyl)-propionamide]	0.018 µM	104 µM
–	–	CC(C)(CO)c1cc(NC(=O)C(C)(C)S(=O)(=O)C2CCOCC2)on1 [Example 2 in WO2010036630]	–	150 µM
–	–	CC(C)(C#N)c1cc(NC(=O)C(C)(C)S(=O)(=O)CC2CCOCC2)on1 [Example 2, N-[3-(Cyano-dimethyl-methyl)-isoxazol-5-yl]-2-methyl-2-(tetrahydro-pyran-4-ylmethanesulfonyl)-propionamide]	0.104 µM	> 200 µM
0.008 µM	> 200 µM	CC(C)(C#N)c1cc(NC(=O)C(C)(C)S(=O)(=O)C2CCOCC2)on1 [Example 3]	–	–
0.00036 µM	39.4 µM	CN(CC1CCOCC1)C(C)(C)C(=O)Nc1cc(C(C)(C)C#N)no1 [Example 4]	–	–
0.00023 µM	2.5 µM	CN(C1CCN(S(C)(=O)=O)CC1)C(C)(C)C(=O)Nc1cc(C(C)(C)C#N)no1 [Example 5]	–	–
0.00068 µM	8.08 µM	CN(CC1CCOCC1)C(C)(C)C(=O)Nc1cc(C(C)(C)CO)no1 [Example 7 in WO2010147792]	–	–
–	–	CN(CC1CCOCC1)C(C)(C)C(=O)Nc1nnc(C(C)(C)C#N)s1 [Example 7, N-[5-(Cyano-dimethyl-methyl)-[1,3,4]thiadiazol-2-yl]-2-methyl-2-[methyl(tetrahydro-pyran-4-ylmethyl)-amino]-propionamide]	0.025 µM	> 200 µM
–	–	CN(C1CCN(S(C)(=O)=O)CC1)C(C)(C)C(=O)Nc1nnc(C(C)(C)C#N)s1 [Example 8]	0.0043 µM	69 µM
–	–	COCC(C)(C)c1cc(NC(=O)C(C)(C)S(=O)(=O)CC2CCOCC2)on1 [Example 17 in WO2010036630]	0.03 µM	8.6 µM
0.00027 µM	0.923 µM	COCC(C)(C)c1cc(NC(=O)C(C)(C)N(C)CC2CCOCC2)on1 [Example 46 in WO2010147792]	–	–
0.00085 µM	3.1 µM	CN(C1CCN(S(C)(=O)=O)CC1)C(C)(C)C(=O)Nc1cc(C(C)(C)CO)no1 [Example 47 in WO2010147792]	–	–
–	–	CC(C)(O)c1cc(NC(=O)C(C)(C)S(=O)(=O)C2CCOCC2)on1 [Example 133 WO2010036630]	0.14 µM	> 200 µM

SMILES	EC50 ([1]; read-out: CB2 EC50)	EC50 ([2]; read-out: CB1 EC50)	EC50 [1]	EC50 [2]
CC(C)(CO)c1cc(NC(=O)C(C)(C)S(=O)(=O)CC2CCOCC2)on1 [Example 1 in WO2010036630]	0.088 µM	–	–	–
CN(CC1CCOCC1)C(C)(C)C(=O)Nc1nnc(C(C)(C)CO)s1 [Example 30 in WO2010147792]	0.0054 µM	120 µM	–	–
